tested on: RMG-1 viability, CellTiterGlo ATP luminescence, 96 h; test: cytotoxicity in PAX8-dependent RMG-1 cells, dose response, cell-based, cherry-pick (AID 687029)

| SMILES | AC50 |
| --- | --- |
| C[C@@H]1CCCCO[C@@H](CN(C)Cc2ccc(C(F)(F)F)cc2)[C@@H](C)CN([C@@H](C)CO)C(=O)c2cc(NS(=O)(=O)c3ccc(F)cc3)ccc2O1 | 35500 nM |
| Cc1ccc(C(=O)N/C(=C\c2ccc(-c3ccc(Br)cc3)o2)C(=O)NCCCN(C)C)cc1 | 12500 nM |
| COc1cc(C=C2C(=O)C=CC2=O)ccc1O | < 260 nM |
| O=C(Nc1ccccc1)NN(C(=O)CCl)c1ccccc1 | 12400 nM |
| O=C(NCc1ccco1)C1CCCN(S(=O)(=O)c2ccc(Br)cc2)C1 (stereo unspecified) | < 260 nM |
| CCOC(=O)Nc1ccc2c(c1)N(C(=O)CCN(CC)CC)c1ccccc1S2=O (stereo unspecified) | < 260 nM |
| Nc1nc(=S)c2[nH]cnc2[nH]1 | < 260 nM |
| C[C@@H]1CCCCO[C@@H](CN(C)C(=O)Nc2cccc3ccccc23)[C@H](C)CN([C@H](C)CO)C(=O)c2cc(NS(=O)(=O)c3ccc(F)cc3)ccc2O1 | < 260 nM |
| C[C@@H]1CCCCO[C@H](CN(C)C(=O)C2CCCCC2)[C@@H](C)CN([C@@H](C)CO)C(=O)c2cc(NC(=O)Nc3ccc(F)cc3)ccc2O1 | < 260 nM |
| O=C1CN(C(=O)Cn2ncc(Cl)c(Cl)c2=O)c2ccccc2N1 | < 260 nM |
| Cc1ccc(NC(=O)CN(C)C(=O)Cn2ncc(Cl)c(Cl)c2=O)cc1 | < 260 nM |
| CC(C)(C)[C@H](N)C(=O)N[C@H]1CCC2C3CC=C4C[C@@H](O)CC[C@]4(C)C3CC[C@@]21C (stereo partly specified) | < 260 nM |
| Cc1ccc(-c2csc3ncnc(Sc4nnc(CN5CCCCCC5=O)o4)c23)cc1 | 10800 nM |
| O=C(NC1CCCCC1)C(c1cccnc1)N(C(=O)CCl)c1ccc(F)cc1 (stereo unspecified) | 9950 nM |
| CC1CC(C)(O)CC(C(O)CC2CC(=O)NC(=O)C2)C1=O (stereo unspecified) | < 260 nM |
| COc1ccc2c(COC(=O)CNC(=O)C34CC5CC(CC(C5)C3)C4)cc(=O)oc2c1 | < 260 nM |
| O=C(Nc1cccc(NC(=O)c2cccs2)c1)c1ccc([N+](=O)[O-])o1 | 11100 nM |
| Cc1ccc(S(=O)(=O)Nc2ccc3c(c2)CC(=O)N([C@H](C)CO)C[C@H](C)[C@H](CN(C)S(=O)(=O)c2ccc(F)cc2)O3)cc1 | 4300 nM |

| SMILES | AC50 |
| --- | --- |
| CCOc1ccc2nc(N/C(N)=N/C(=S)Nc3ccc(C)c(C)c3)nc(C)c2c1 | < 260 nM |
| CCCC(=O)NC1=C(Cl)C(=O)c2ccccc2C1=O | < 260 nM |
| O=C(O)c1cccc(COc2ccc3c(c2)CCC3)c1 | < 260 nM |
| C[C@]12CC[C@H]3[C@@H](CC[C@]4(O)C[C@@H](O)CC[C@]34C=O)[C@@]1(O)CC[C@@H]2C1=CC(=O)OC1 | < 260 nM |
| O=C(CSc1ncccc1-c1nc2ccccc2[nH]1)N1CCc2ccccc21 | < 260 nM |
| Cc1cc(Nc2ccc3c(c2)OCCO3)c2ccccc2n1 | < 260 nM |
| O=c1[nH]c2ccccc2n1C1CCN(C(c2cccs2)c2nnnn2-c2ccc3c(c2)OCCO3)CC1 (stereo unspecified) | < 260 nM |
| O=C(Nc1ccc(N2CCN(C(=O)c3ccccc3)CC2)cc1)c1ccc([N+](=O)[O-])o1 | < 260 nM |
| COc1cc(OC)cc(C(=O)NCC(=O)OCC(=O)c2cc(C)n(Cc3ccco3)c2C)c1 | < 260 nM |
| C[C@@H]1CCCCO[C@@H](CN(C)C(=O)Nc2cccc3ccccc23)[C@H](C)CN([C@H](C)CO)C(=O)c2cc(NS(=O)(=O)c3ccccc3)ccc2O1 | < 260 nM |
| O=C(C(=O)N(Cc1ccccc1)Cc1ccccc1)c1c(-c2ccccc2)[nH]c2ccccc12 | < 260 nM |
| COc1cccc(S(=O)(=O)NCC(=O)Nc2ccc(C(C)(C)C)cc2)c1 | < 260 nM |
| COc1cccc(N2CCN(C(=O)c3ccc(CS(=O)c4ccccc4Cl)o3)CC2)c1 (stereo unspecified) | < 260 nM |
| CC(C)c1cc(C(=O)OCC(=O)N2CCN(C(=O)c3ccco3)CC2)c(O)c(C(C)C)c1 | < 260 nM |
| CCC(C)(O)C(=O)OC1C(=O)OC2CC3C(C)=CC(=O)C(O)C3(C)C3C4(O)OCC23C1C(C)C4O (stereo unspecified) | 19700 nM |
| C[C@H]1CCCCO[C@H](CN(C)Cc2ccc(C(F)(F)F)cc2)[C@@H](C)CN([C@@H](C)CO)C(=O)c2cc(NS(=O)(=O)c3ccc(Cl)cc3)ccc2O1 | < 260 nM |
| O=C(Nc1ccc(OCC(F)(F)C(F)F)c(C(F)(F)F)c1)c1ccccc1O | < 260 nM |
| COc1cccc(-c2ccc([C@H]3[C@@H](CO)N(C(=O)Cc4ccccc4)[C@H]3C#N)cc2)c1 | < 260 nM |

From PubChem BioAssay AID687029 (Broad Institute, 2013)
